Experimental data taken from ChEMBL document CHEMBL1201862, “PubChem BioAssay data set” (2004).
Calls of active or inactive are those of the source. Unless noted, the calls are words filed in the database; no cut-off is given here.

Key:
[1] = A Cell-Based Confirmatory Screen for Compounds that Inhibit VEEV, TC-83 (8).; format: functional
[2] = A Cell-Based Confirmatory Screen for Compounds that Inhibit VEEV, TC-83 (5).; format: functional
[3] = biological target: NAD-dependent protein deacylase sirtuin-5, mitochondrial (Homo sapiens, UniProt Q9NXA8); experiment: SIRT5 deacylase inhibitors, dose response, biochemical, fluorescence imaging, cherry-pick, set 6 (AID 720597)
[4] = HEK293T cell cytotoxicity, dose response, cytotoxicity control, CellTiter-Glo luminescence, dry powder, set 6 (AID 651949); format: functional, cell-based; settings: HEK293
[5] = cytotoxicity in HepG2 cells, dose response, cytotoxicity control, cell-based, plate reader, dry powder (AID 651947); format: functional
[6] = cytotoxicity in HEK293 cells, dose response, cytotoxicity control, cell-based, cherry-picked samples (AID 1053185); format: functional
[7] = P. falciparum Dd2 growth inhibitors, dose response, SYBR Green, cherry-picked samples (AID 1159567); format: functional, cell-based
[8] = HepG2 cell cytotoxicity, dose response, cytotoxicity control, cherry-picked samples (AID 1159577); format: functional, cell-based
[9] = cytotoxicity in HepG2 cells, dose response, cytotoxicity control, cell-based, cherry-picked samples (AID 1053183); format: functional
[10] = cytotoxicity in A549 cells, dose response, cytotoxicity control, cell-based, cherry-picked samples (AID 1053184); format: functional
[11] = biological target: Mu-type opioid receptor (Homo sapiens, UniProt P35372); experiment: Late-stage results from the probe development effort to identify antagonists of OPRK1: luminescence-based cell-based dose response OPRM1 counterscreen.; format: functional
[12] = biological target: Delta-type opioid receptor (Homo sapiens, UniProt P41143); experiment: Late-stage results from the probe development effort to identify antagonists of OPRK1: fluorescence-based cell-based dose response OPRD1 counterscreen.; format: functional
[13] = inhibitors of non-replicating M. tuberculosis, dose response, luciferase, dry powder (AID 651620); format: functional; settings: Mycobacterium tuberculosis
[14] = inhibitors of non-replicating M. tuberculosis, dose response, luciferase, dry powder (AID 651619); format: functional; settings: Mycobacterium tuberculosis
[15] = cytotoxicity in HeLa cells, dose response, cytotoxicity control, cell-based, plate reader, dry powder (AID 651946); format: functional
[16] = biological target: Endoplasmic reticulum aminopeptidase 2 (Homo sapiens, UniProt Q6P179); experiment: ERAP2 aminopeptidase inhibitors, dose response, selectivity assay for selective ERAP1 modulator project, biochemical, fluorescence plate reader, cherry-picked, set 2 (AID 743320)
[17] = biological target: Endoplasmic reticulum aminopeptidase 1 (Homo sapiens, UniProt Q9NZ08); experiment: ERAP1 aminopeptidase inhibitors, dose response, biochemical, cherry-pick, set 2, plate reader (AID 743314)
Chain of Endoplasmic reticulum aminopeptidase 1 (Q9NZ08 whole entry): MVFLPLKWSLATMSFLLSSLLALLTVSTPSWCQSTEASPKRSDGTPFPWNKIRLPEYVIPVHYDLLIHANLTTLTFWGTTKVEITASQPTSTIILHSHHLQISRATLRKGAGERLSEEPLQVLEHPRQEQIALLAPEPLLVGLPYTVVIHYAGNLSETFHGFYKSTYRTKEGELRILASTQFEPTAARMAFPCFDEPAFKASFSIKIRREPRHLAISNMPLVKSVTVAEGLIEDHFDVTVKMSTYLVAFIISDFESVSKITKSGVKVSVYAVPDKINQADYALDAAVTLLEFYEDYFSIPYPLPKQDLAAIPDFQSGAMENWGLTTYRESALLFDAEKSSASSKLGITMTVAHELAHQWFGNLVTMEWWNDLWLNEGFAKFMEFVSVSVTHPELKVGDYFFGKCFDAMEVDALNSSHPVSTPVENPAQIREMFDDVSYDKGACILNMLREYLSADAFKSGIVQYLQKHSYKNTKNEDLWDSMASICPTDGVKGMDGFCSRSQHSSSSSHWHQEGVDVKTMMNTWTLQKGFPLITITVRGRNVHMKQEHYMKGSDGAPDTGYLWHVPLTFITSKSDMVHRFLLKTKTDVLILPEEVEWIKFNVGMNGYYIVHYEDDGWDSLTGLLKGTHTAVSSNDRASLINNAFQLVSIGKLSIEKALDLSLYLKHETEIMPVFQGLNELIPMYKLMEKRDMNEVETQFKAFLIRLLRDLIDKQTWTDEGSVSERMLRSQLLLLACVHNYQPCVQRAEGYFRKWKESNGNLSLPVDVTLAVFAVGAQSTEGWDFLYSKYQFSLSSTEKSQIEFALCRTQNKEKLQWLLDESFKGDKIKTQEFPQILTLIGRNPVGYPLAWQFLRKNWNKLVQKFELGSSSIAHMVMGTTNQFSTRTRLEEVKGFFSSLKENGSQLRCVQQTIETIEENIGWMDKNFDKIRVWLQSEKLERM

Chain of Delta-type opioid receptor (P41143 whole entry): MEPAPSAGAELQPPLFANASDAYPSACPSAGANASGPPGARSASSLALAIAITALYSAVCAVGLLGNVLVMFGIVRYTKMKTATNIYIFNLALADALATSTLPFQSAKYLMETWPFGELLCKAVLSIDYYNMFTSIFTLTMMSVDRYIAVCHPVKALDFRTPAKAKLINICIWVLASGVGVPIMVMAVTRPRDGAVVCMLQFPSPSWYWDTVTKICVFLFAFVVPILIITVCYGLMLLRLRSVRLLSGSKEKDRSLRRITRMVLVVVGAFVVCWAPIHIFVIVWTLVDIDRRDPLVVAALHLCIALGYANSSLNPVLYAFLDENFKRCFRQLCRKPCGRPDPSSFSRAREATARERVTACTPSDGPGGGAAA
Chain of Endoplasmic reticulum aminopeptidase 2 (Q6P179 whole entry): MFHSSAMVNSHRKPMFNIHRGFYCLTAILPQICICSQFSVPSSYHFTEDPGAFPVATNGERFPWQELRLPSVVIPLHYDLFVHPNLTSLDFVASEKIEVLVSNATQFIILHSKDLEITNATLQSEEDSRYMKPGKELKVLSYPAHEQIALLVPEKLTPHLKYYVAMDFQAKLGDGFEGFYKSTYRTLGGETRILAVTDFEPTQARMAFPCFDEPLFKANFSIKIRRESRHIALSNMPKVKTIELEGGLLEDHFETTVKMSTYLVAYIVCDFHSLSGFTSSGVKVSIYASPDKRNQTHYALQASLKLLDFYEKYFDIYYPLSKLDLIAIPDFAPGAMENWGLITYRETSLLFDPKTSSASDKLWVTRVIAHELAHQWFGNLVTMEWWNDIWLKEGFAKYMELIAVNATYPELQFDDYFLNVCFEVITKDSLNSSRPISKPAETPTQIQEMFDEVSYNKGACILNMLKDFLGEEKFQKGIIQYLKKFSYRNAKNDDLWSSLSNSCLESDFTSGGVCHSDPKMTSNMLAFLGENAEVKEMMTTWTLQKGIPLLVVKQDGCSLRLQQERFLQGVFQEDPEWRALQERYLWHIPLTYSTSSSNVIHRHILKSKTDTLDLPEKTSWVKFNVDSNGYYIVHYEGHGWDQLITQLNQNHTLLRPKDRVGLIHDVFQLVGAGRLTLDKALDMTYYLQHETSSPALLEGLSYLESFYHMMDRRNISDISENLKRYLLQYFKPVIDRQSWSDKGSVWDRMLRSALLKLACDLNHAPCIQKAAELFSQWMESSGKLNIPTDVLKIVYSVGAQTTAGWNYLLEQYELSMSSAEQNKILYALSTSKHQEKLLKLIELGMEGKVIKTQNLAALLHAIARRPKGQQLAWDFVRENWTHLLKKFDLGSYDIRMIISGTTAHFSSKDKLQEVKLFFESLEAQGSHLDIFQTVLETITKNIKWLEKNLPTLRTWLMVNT
Chain of NAD-dependent protein deacylase sirtuin-5, mitochondrial (Q9NXA8 whole entry): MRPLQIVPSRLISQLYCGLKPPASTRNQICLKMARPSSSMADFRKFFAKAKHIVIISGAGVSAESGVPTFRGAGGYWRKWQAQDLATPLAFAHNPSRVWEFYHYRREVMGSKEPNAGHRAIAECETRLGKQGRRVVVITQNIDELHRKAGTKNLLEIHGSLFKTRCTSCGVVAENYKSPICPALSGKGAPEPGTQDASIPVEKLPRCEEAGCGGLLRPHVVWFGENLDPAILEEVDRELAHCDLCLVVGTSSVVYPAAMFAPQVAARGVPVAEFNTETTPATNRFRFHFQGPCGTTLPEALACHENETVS
Chain of Mu-type opioid receptor (P35372 whole entry): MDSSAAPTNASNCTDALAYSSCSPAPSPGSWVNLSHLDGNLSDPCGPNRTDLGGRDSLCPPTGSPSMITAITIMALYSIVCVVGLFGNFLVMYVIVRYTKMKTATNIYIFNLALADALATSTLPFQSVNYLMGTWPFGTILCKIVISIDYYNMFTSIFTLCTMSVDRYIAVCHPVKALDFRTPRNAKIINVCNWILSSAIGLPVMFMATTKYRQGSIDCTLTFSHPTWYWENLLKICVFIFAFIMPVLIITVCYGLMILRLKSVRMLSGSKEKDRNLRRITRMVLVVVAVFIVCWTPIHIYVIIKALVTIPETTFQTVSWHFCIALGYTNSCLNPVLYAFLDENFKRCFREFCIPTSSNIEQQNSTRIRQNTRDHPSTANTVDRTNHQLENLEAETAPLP

For `O=c1c2cc([N+](=O)[O-])ccc2nc(CN2CCNCC2)n1-c1ccccc1`, the IC50 [1] was < 0.168 µM (active) and the IC50 [2] was 0.15 µM (active).

For `COCCNC(=O)C[C@@H]1CC[C@H]2[C@H](COc3ccc(NC(=O)Nc4cccc(F)c4)cc3C(=O)N2C)O1`, the AC50 [3] was > 30 µM (inactive).

In the case of `CS(=O)(=O)c1ccc(CSc2nnc(-c3ccccc3)o2)cc1`, the AC50 [4] is reported as 49 µM (active) and the AC50 [5] is reported as 0.28 µM (active).

In the case of `C(=C\c1ccc([C@@H]2[C@@H]3CN(Cc4ccc5c(c4)OCO5)C[C@H]2N3)cc1)/c1ccccc1`, the AC50 [6] is reported as 17 µM (active), the AC50 [7] is reported as 6.09 µM (active) and the AC50 [8] is reported as 9.8 µM (active). The AC50 [9] was 17.1 µM (active) and the AC50 [10] was > 12 µM (inactive).

For `COC(=O)c1cc(Br)cnc1N1CCC(NC2CCOCC2)CC1`, the IC50 [11] was 50 µM (inactive) and the IC50 [12] was > 50 µM (inactive).

With `Brc1ccc(-c2nnc(SCc3ccccn3)o2)cc1` the IC90 [13] was 4 µM (active), the AC50 [5] was 5.42 µM (active) and the IC90 [14] was 4 µM (active). For the same compound, the AC50 [15] was > 52 µM (inactive).

With `CCC(=O)N(C)C[C@@H]1Oc2ncc(C#Cc3ccncc3)cc2C(=O)N([C@@H](C)CO)C[C@@H]1C` the AC50 [16] was 17.2 µM (active) and the AC50 [17] was 2.86 µM (active).
